Test results from US20240226343A1, “NEUROPEPTIDE Y1 RECEPTOR (NPY1R) TARGETED THERAPEUTICS AND USES THEREOF” (RADIONETICS ONCOLOGY, INC., priority 2022, published 2024).
Where two headings read alike, the source gives them in different places.

Target: T1, hNPY1R (Homo sapiens, UniProt P25929)
T1 construct: SK-N-MC cells endogenously expressing the NPY1R receptor; endogenous in cells; host or cells: SK-N-MC cells (crude membrane fractions)
T1 sequence (P25929 1-384): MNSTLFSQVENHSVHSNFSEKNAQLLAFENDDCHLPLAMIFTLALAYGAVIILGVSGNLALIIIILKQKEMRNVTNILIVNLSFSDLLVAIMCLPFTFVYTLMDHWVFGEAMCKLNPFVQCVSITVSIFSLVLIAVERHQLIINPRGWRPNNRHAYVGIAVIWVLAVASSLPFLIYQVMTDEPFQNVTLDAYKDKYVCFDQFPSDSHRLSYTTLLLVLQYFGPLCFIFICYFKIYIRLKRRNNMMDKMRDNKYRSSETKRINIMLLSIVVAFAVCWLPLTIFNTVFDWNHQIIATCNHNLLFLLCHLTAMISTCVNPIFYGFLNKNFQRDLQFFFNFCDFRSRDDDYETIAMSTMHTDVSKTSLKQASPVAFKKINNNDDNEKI
Test: NPY1R binding assay: SK-N-MC membranes, [125I]-Peptide YY (human) competition
Details: SK-N-MC membranes
Method: Crude membrane fractions are prepared from SK-N-MC cells endogenously expressing the NPY1R receptor. The cells are grown to 85-100% confluence on standard tissue culture dishes in Eagle's Minimum Essential Medium supplemented with 10% dialyzed FBS. To prepare membranes, cells are scraped and collected in 1× Dulbecco's phosphate buffered saline and then pelleted at 1000 RPM's. The cell pellet is reconstituted in membrane preparation buffer (20 mM HEPES, 6 mM MgCl2 and 1 mM EGTA, protease inhibitor tablets, pH 7.4) and placed in a cell disruption vessel at 1000 PSI for 30 minutes on ice. The pressurized contents are then released and spun down at 1000 RPMs and the supernatant is collected and further centrifuged at 15,000 RPMs to pellet the membranes. The membrane pellet is resuspended in membrane preparation buffer, snap frozen and stored at −80° C. for later use.
[…] Assay contents are then filtered through unifilter GF/C microplates and washed with 9×400 μl of cold wash buffer (25 mM HEPES, 5 mM MgCl2, 1 mM CaCl2), 500 mM NaCl, 0.1% Tween-20, pH 7.4). Assay plates are read using a Top Count NXT and Ki values for compounds are determined using a GraphPad Prism 6 non-linear regression analysis.

[1] = data obtained after 120 minutes at rt, [125I]-Peptide YY, read-out: hNPY.R binding Ki* ††
[2] = data obtained after 60 minutes at 37° C., [125I]-Peptide YY 0.05 nM, read-out: hNPY1R binding Ki* †

Row | SMILES | Ki [1] [nM] | Ki [2] [nM]
1 | CCC(=O)NCCNC(=O)/N=C(/N)NCCC[C@@H](NC(=O)C(c1ccccc1)c1ccc(OCCCNc2c(NCCNC(=O)CN3CCN(CC(=O)O)CCN(CC(=O)O)CCN(CC(=O)O)CC3)c(=O)c2=O)cc1)C(=O)NCc1ccc(O)cc1 (single isomer, unassigned) [Compound 136B] | < 10 | 
2 | CCC(=O)NCCNC(=O)/N=C(/N)NCCC[C@@H](NC(=O)C(c1ccccc1)c1ccc(NCCCNC(=O)c2ccc(C(=O)NCCCCNC(=O)CN3CCN(CC(=O)O)CCN(CC(=O)O)CCN(CC(=O)O)CC3)cc2)cc1)C(=O)NCc1ccc(O)cc1 (stereo partly drawn) [Compound 157, 2,2′,2″-(10-(2-((4-(4-((3-((4-((4R,Z)-9-amino-4-((4-hydroxybenzyl)carbamoyl)-2,11,16-trioxo-1-phenyl-3,8,10,12,15-pentaazaoctadec-9-en-1-yl)phenyl)amino)propyl)carbamoyl)benzamido)butyl)amino)-2-oxoethyl)-1,4,7,10-tetraazacyclododecane-1,4,7-triyl)triacetic acid] | < 10 | 
3 | CCC(=O)NCCNC(=O)/N=C(/N)NCCC[C@@H](NC(=O)C(c1ccccc1)c1ccc(NCCNC(=O)[C@H](N)CCCNC(=O)CN2CCN(CC(=O)O)CCN(CC(=O)O)CCN(CC(=O)O)CC2)cc1)C(=O)NCc1ccc(O)cc1 (single isomer, unassigned) [Compound 143B] | < 10 | 
4 | CCC(=O)NCCNC(=O)/N=C(/N)NCCC[C@@H](NC(=O)C(c1ccccc1)c1cccc(OCCCCNC(=O)[C@H](CS(=O)(=O)O)NC(=O)CN2CCN(CC(=O)O)CCN(CC(=O)O)CCN(CC(=O)O)CC2)c1)C(=O)NCc1ccc(O)cc1 (single isomer, unassigned) [Compound 107B] |  | 10 to 100
5 | CCC(=O)NCCNC(=O)/N=C(/N)NCCC[C@@H](NC(=O)C(c1ccccc1)c1ccc(NCCCNC(=O)[C@H](N)CCCNC(=O)CN2CCC(NC(=O)CN3CCN(CC(=O)O)CCN(CC(=O)O)CCN(CC(=O)O)CC3)CC2)cc1)C(=O)NCc1ccc(O)cc1 (single isomer, unassigned) [Compound 146A] | < 10 | 
6 | CCC(=O)NCCNC(=O)/N=C(/N)NCCC[C@@H](NC(=O)C(c1ccccc1)c1cccc(NCCCNc2c(NCCNC(=O)CN3CCN(CC(=O)O)CCN(CC(=O)O)CCN(CC(=O)O)CC3)c(=O)c2=O)c1)C(=O)NCc1ccc(O)cc1 (single isomer, unassigned) [Compound 120B] | < 10 | 
7 | CCC(=O)NCCNC(=O)/N=C(/N)NCCC[C@@H](NC(=O)C(c1ccccc1)c1cccc(OCCCCNC(=O)[C@H](CS(=O)(=O)O)NC(=O)CN2CCN(CC(=O)O)CCN(CC(=O)O)CCN(CC(=O)O)CC2)c1)C(=O)NCc1ccc(O)cc1 (single isomer, unassigned) [Compound 107A] |  | 10 to 100
8 | CCC(=O)NCCNC(=O)/N=C(/N)NCCC[C@@H](NC(=O)C(c1ccccc1)c1ccc(NCCCNC(=O)[C@H](N)CCC(=O)NCCN(C)CCNC(=O)CN2CCN(CC(=O)O)CCN(CC(=O)O)CCN(CC(=O)O)CC2)cc1)C(=O)NCc1ccc(O)cc1 (single isomer, unassigned) [Compound 145B] | < 10 | 
9 | CCC(=O)NCCNC(=O)/N=C(/N)NCCC[C@@H](NC(=O)C(c1ccccc1)c1cccc(OCCCCNC(=O)c2ccc(CNC(=O)CN3CCN(CC(=O)O)CCN(CC(=O)O)CCN(CC(=O)O)CC3)cc2)c1)C(=O)NCc1ccc(O)cc1 (stereo partly drawn) [Compound 123, 2,2′,2″-(10-(2-((4-((4-(3-((4R,Z)-9-amino-4-((4-hydroxybenzyl)carbamoyl)-2,11,16-trioxo-1-phenyl-3,8,10,12,15-pentaazaoctadec-9-en-1-yl)phenoxy)butyl)carbamoyl)benzyl)amino)-2-oxoethyl)-1,4,7,10-tetraazacyclododecane-1,4,7-triyl)triacetic acid] | < 10 | 
10 | CCC(=O)NCCNC(=O)/N=C(/N)NCCC[C@@H](NC(=O)C(c1ccccc1)c1ccc(NC(=O)CCOCCOCCOCCOCCNC(=O)CN2CCN(CC(=O)O)CCN(CC(=O)O)CCN(CC(=O)O)CC2)cc1)C(=O)NCc1ccc(O)cc1 (single isomer, unassigned) [Compound 102B] |  | 10 to 100
11 | CCNC(=O)/N=C(/N)NCCC[C@@H](NC(=O)[C@@H](c1ccccc1)c1ccc(NCCCNC(=O)[C@H](N)CCCCNC(=O)CN2CCN(CC(=O)O)CCN(CC(=O)O)CCN(CC(=O)O)CC2)cc1)C(=O)NCc1ccc(O)cc1 (single isomer, unassigned) [Compound 144A] | < 10 | 
12 | CCC(=O)NCCNC(=O)/N=C(/N)NCCC[C@@H](NC(=O)C(c1ccccc1)c1cccc(OCCCCNC(=O)CCOCCNC(=O)CN2CCN(CC(=O)O)CCN(CC(=O)O)CCN(CC(=O)O)CC2)c1)C(=O)NCc1ccc(O)cc1 (single isomer, unassigned) [Compound 108A] |  | < 10
13 | CCC(=O)NCCNC(=O)/N=C(/N)NCCC[C@@H](NC(=O)C(c1ccccc1)c1cccc(OCCOCCOCCOCCOCCNC(=O)CN2CCN(CC(=O)O)CCN(CC(=O)O)CCN(CC(=O)O)CC2)c1)C(=O)NCc1ccc(CNC(N)=O)cc1 (single isomer, unassigned) [Compound 114B] |  | 10 to 100
14 | CCC(=O)NCCNC(=O)/N=C(/N)NCCC[C@@H](NC(=O)C(c1ccccc1)c1cccc(OCCCCNC(=O)[C@H](N)CCCCNC(=O)CN2CCN(CC(=O)O)CCN(CC(=O)O)CCN(CC(=O)O)CC2)c1)C(=O)NCc1ccc(O)cc1 (single isomer, unassigned) [Compound 109B] |  | < 10
15 | CCC(=O)NCCNC(=O)/N=C(/N)NCCC[C@@H](NC(=O)C(c1ccccc1)c1cccc(OCCCCNc2c(NCCNC(=O)[C@@H](CCCCN)NC(=O)CN3CCN(CC(=O)O)CCN(CC(=O)O)CCN(CC(=O)O)CC3)c(=O)c2=O)c1)C(=O)NCc1ccc(O)cc1 (stereo in doubt) [Compound 116B-In, indium (III) 2,2′,2″-(10-(2-((6-amino-1-((2-((2-((4-(3-((R,Z)-9-amino-4-((4-hydroxybenzyl)carbamoyl)-2,11,16-trioxo-1-phenyl-3,8,10,12,15-pentaazaoctadec-9-en-1-yl)phenoxy)butyl)amino)-3,4-dioxocyclobut-1-en-1-yl)amino)ethyl)amino)-1-oxohexan-2-yl)amino)-2-oxoethyl)-1,4,7,10-tetraazacyclododecane-1,4,7-triyl)triacetate] | < 10 | 
16 | CCC(=O)NCCNC(=O)/N=C(/N)NCCC[C@@H](NC(=O)C(c1ccccc1)c1cccc(OCCCCNC(=O)CC[C@@H](NC(=O)CN2CCN(CC(=O)O)CCN(CC(=O)O)CCN(CC(=O)O)CC2)C(=O)O)c1)C(=O)NCc1ccc(O)cc1 (single isomer, unassigned) [Compound 110B] |  | < 10
17 | CCNC(=O)/N=C(/N)NCCC[C@@H](NC(=O)C(c1ccccc1)c1cccc(OCCCCNC(=O)[C@@H](Cc2ccc(-c3ccccc3)cc2)NC(=O)[C@@H](CN)NC(=O)CN2CCN(CC(=O)O)CCN(CC(=O)O)CCN(CC(=O)O)CC2)c1)C(=O)NCc1ccc(O)cc1 (single isomer, unassigned) [Compound 148A] | < 10 | 
18 | CCC(=O)NCCNC(=O)/N=C(/N)NCCC[C@@H](NC(=O)C(c1ccccc1)c1cccc(OCCCCNc2c(NCCNC(=O)[C@@H](CCCCN)NC(=O)CN3CCN(CC(=O)O)CCN(CC(=O)O)CCN(CC(=O)O)CC3)c(=O)c2=O)c1)C(=O)NCc1ccc(O)cc1 (single isomer, unassigned) [Compound 116A] | < 10 | 
19 | CCC(=O)NCCNC(=O)/N=C(/N)NCCC[C@@H](NC(=O)C(c1ccccc1)c1cccc(OCCCCNC(=O)CCOCCOCCOCCOCCOCCOCCOCCOCCOCCOCCOCCOCCOCCOCCOCCOCCOCCOCCOCCOCCOCCOCCOCCOCCOCCOCCOCCOCCOCCOCCOCCOCCOCCOCCOCCOCCNC(=O)CN2CCN(CC(=O)O)CCN(CC(=O)O)CCN(CC(=O)O)CC2)c1)C(=O)NCc1ccc(O)cc1 (stereo partly shown) [Compound 126] | 10 to 100 | 
20 | CCC(=O)NCCNC(=O)/N=C(/N)NCCC[C@@H](NC(=O)C(c1ccccc1)c1cccc(OCCCCNC(=O)CCNC(=O)CN2CCN(CC(=O)O)CCN(CC(=O)O)CCN(CC(=O)O)CC2)c1)C(=O)NCc1c(F)cc(O)cc1F (single isomer, unassigned) [Compound 162A] | < 10 | 
21 | CCC(=O)NCCNC(=O)/N=C(/N)NCCC[C@@H](NC(=O)C(c1ccccc1)c1ccc(NCCCNC(=O)CCOCCOCCNC(=O)CN2CCN(CC(=O)O)CCN(CC(=O)O)CCN(CC(=O)O)CC2)cc1)C(=O)NCc1ccc(O)cc1 (single isomer, unassigned) [Compound 103A] |  | 10 to 100
22 | CCC(=O)NCCNC(=O)/N=C(/N)NCCC[C@@H](NC(=O)C(c1ccccc1)c1cccc(OCCCCNC(=O)CNC(=O)[C@@H](CC(N)=O)NC(=O)CN2CCN(CC(=O)O)CCN(CC(=O)O)CCN(CC(=O)O)CC2)c1)C(=O)NCc1ccc(O)cc1 (single isomer, unassigned) [Compound 112B] |  | < 10
